1 compound from US6031135A, “Trimethylsphingosine derivatives” (Oncomembrane, Inc., priority 1996, dated 2000) can be followed below.

The subject of one experiment is GMP-140. The experiment in a line: GMP-140 expression in platelets (flow cytometry with mAb AC1.2). The note with it: platelets preincubated with compound; thrombin or PMA activation. The format is cell-based. The procedure:
GMP-140 expression was determined by (i) flow cytometry with mAb AC1.2, which is directed to GMP-140 and obtained from Dr. Furie (Tufts Univ. Sch. Med., Boston, Mass.) and (ii) adhesion of HL60 cells on platelet-coated solid phase.
A suspension of platelets (1×10^8 /ml) in Tyrode buffer was preincubated with inhibitor at pH 7.2, 37° C., for 5 minutes, then supplemented with activator, either thrombin (final concentration 1 U/ml) or phorbol 12-myristate 13-acetate (PMA) (final concentration 10^-7 M), and then the mixture was incubated at 37° C. for 10 minutes. Platelets were fixed with an equal volume of 2% (w/v) paraformaldehyde in PBS and washed 2 times with PBS containing 1% (w/v) BSA.
The paraformaldehyde-fixed platelets were incubated with 50 μl of mAb AC1.2 (2.5 μg/ml) at room temperature for 30 minutes. […]
The platelets were analyzed in an Epics flow cytometer (Coulter Corp.) with suitable gating. To calculate the inhibitory effect of various reagents, the mean fluorescence intensity of resting platelets (obtained on incubation of platelets without activator) was subtracted from the value for the activated platelet sample.
On the technique in general: Flow cytometry measures light scatter and fluorescence of single cells or particles in a stream.

For the next experiment, the system named is HL60 cells. In words: HL60 adhesion on activated platelet-coated solid phase. The format is cell-based, human. The note with it: thrombin-stimulated and PMA-stimulated platelets. The procedure:
HL60 (a human promylelocytic cell line available from the ATCC under accession number CCL 240) adhesion on resting or activated platelet-coatedsolid phase was evaluated as follows. Each well of a 48-well plate (Costar Scientific, Cambridge, Mass.) was filled with a poly-L-lysine solution (100 μg/ml in PBS) and incubated for 1 hour. Each well then was washed with PBS and then 150 μl of PBS containing 6×10^7 resting or activated platelets were added to each well and the plate was incubated for 1 hour. Plates were centrifuged (300×g for 7 minutes) and incubated a further 30 minutes at room temperature. Bound platelets were fixed by addition of 0.1% (w/v) glutaraldehyde in PBS for 2 minutes at 4° C. Each well was washed with 10 mM glycine in PBS and plates were incubated with 5% (w/v) BSA containing 0.1% (w/v) sodium azide, 10 mM glycine in PBS for 1 hour at room temperature.

For the next experiment, the system named is platelets. The experiment in a line: platelet aggregation (aggregometer, thrombin or ADP). The note with it: background statement. In kind it is cell-based. The procedure: Platelets were isolated from platelet-rich plasma (purchased from the Oregon Red Cross, Portland, Oreg.). Contaminating erythrocytes were removed by centrifugation (80×g for 10 minutes). Platelets were obtained by centrifugation (300×g for 10 minutes), washed once in Tyrode buffer (pH 6.5) containing 22 mM trisodium citrate and 0.35% (w/v) BSA and resuspended in the same buffer to obtain a concentration of 1-2×10^9 platelets/ml. All procedures were performed at room temperature.
A suspension of platelets (about 3.5×10^8 /ml) in Tyrode buffer was preincubated with inhibitor compounds (H-7 [1-(5-isoquinolinylsulfonyl)-2-methylpiperazine, a synthetic protein kinase-C inhibitor purchased from Seikagaku America Inc., St. Petersburg, Fla.], Calphostin-C [a synthetic protein kinase-C inhibitor obtained from Dr. Saitoh, Kyowa Hakko Co., Ltd., Machida, Tokyo, Japan], sphingosine [purchased from Sigma, St. Louis, Mo.] and dimethylsphingosine and trimethylsphingosine [synthesized according to Igarashi et al., Biochem., 28, 6796, 1989]) followed by addition of thrombin or ADP (both purchased from Sigma). Platelet aggregation was evaluated by transmittance change using an aggregometer (Chrono-log Corp., Havertown, Pa.) equipped with a computer analyzer.

In the next experiment the test system is neutrophils. In words: PMA-dependent O2 consumption of neutrophils. In kind it is cell-based, human.

Each structure is given as a SMILES string. “Also recorded” adds a separate entry of the source.

Regarding `CCCCCCCCCCCCC/C=C/C(O)C(CO)[N+](C)(C)C` (stereo not shown) [TMS, N,N,N-trimethylsphingosine], the GMP-140 expression result with GMP-140 is recorded as “down-regulated or blocked; also recorded: inhibits GMP-140 expression”. Moreover, in the experiment on HL60 cells, the HL60 cell binding entry is recorded as “inhibited strongly”. In addition, the “Platelet aggregation and associated ATP secretion” value in the experiment with platelets is “inhibited strongly”. Also, the “PMA-dependent enhancement of O2 consumption” value in the experiment with neutrophils is given as “inhibited strongly”.
